Source: the supplement of paper PMC6045584
± gives the standard deviation of the averaged measurements.

Experiments:
[1] = compound: CCN(CC)CCCCNc1ncc2cc(-c3cc(OC)cc(OC)c3)c(NC(=O)NC(C)(C)C)nc2n1; assay: surviving fraction relative to DMSO-only wells; higher = less growth inhibition; conditions: exposure time: 5 days
Outline: (§1)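 Five days of continuous inhibitor exposure, at 0.5, 1, 5, 10, 50, 100, 500 and 1000 nM, followed a 24-hour period after log-phase tumour cell lines were seeded at 250–500 cells per well in 384-well plates. Surviving fraction was derived from CellTiter-Glo luminescence relative to the median of DMSO-only wells. Plates were read after 10 minutes at room temperature, and lines screened three times were kept only if replicate Pearson r >0.7 and median Z' >0.3.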

2-METHOXYESTRADIOL = compound: COc1cc2c(cc1O)CC[C@@H]1[C@@H]2CC[C@]2(C)[C@@H](O)CC[C@@H]12 [2-METHOXYESTRADIOL]; assay: as above; conditions: exposure time: 5 days
Outline: as §1

Test System | surviving fraction ([1]; 0.5 nM) | surviving fraction ([1]; 1 nM) | surviving fraction ([1]; 5 nM) | surviving fraction ([1]; 10 nM) | surviving fraction ([1]; 50 nM) | surviving fraction ([1]; 100 nM) | surviving fraction ([1]; 500 nM) | surviving fraction ([1]; 1000 nM) | surviving fraction (2-METHOXYESTRADIOL; 0.5 nM) | surviving fraction (2-METHOXYESTRADIOL; 1 nM) | surviving fraction (2-METHOXYESTRADIOL; 5 nM) | surviving fraction (2-METHOXYESTRADIOL; 10 nM) | surviving fraction (2-METHOXYESTRADIOL; 50 nM) | surviving fraction (2-METHOXYESTRADIOL; 100 nM) | surviving fraction (2-METHOXYESTRADIOL; 500 nM) | surviving fraction (2-METHOXYESTRADIOL; 1000 nM)
H23 LUNG | 0.958 ± 0.041 | 0.998 ± 0.065 | 0.96 ± 0.053 | 1.01 ± 0.054 | 0.983 ± 0.02 | 1.02 ± 0.013 | 1.02 ± 0.029 | 1.02 ± 0.079 | 0.97 ± 0.025 | 0.949 ± 0.017 | 1 ± 0.035 | 0.963 ± 0.039 | 0.975 ± 0.06 | 1.03 ± 0.021 | 0.749 ± 0.019 | 0.265 ± 0.004
HCC78 LUNG | 0.977 ± 0.31 | 0.856 ± 0.038 | 0.997 ± 0.23 | 0.968 ± 0.07 | 0.935 ± 0.19 | 0.917 ± 0.093 | 0.964 ± 0.097 | 0.941 ± 0.084 | 0.781 ± 0.22 | 0.786 ± 0.076 | 0.866 ± 0.094 | 1.02 ± 0.24 | 0.827 ± 0.14 | 0.759 ± 0.14 | 0.298 ± 0.087 | 0.0893 ± 0.036
HCC202 BREAST | 1.05 ± 0.052 | 1.31 ± 0.39 | 1.3 ± 0.53 | 1.22 ± 0.13 | 1.27 ± 0.32 | 1.41 ± 0.073 | 1.13 ± 0.14 | 1.24 ± 0.061 | 1.1 ± 0.39 | 1.22 ± 0.36 | 1.12 ± 0.29 | 1.02 ± 0.19 | 1.23 ± 0.062 | 1.04 ± 0.27 | 0.713 ± 0.32 | 0.564 ± 0.23
HCC1395 BREAST | 0.991 ± 0.2 | 0.785 ± 0.093 | 0.968 ± 0.14 | 0.9 ± 0.021 | 0.872 ± 0.14 | 0.867 ± 0.074 | 0.826 ± 0.17 | 0.818 ± 0.18 | 0.926 ± 0.081 | 1.15 ± 0.08 | 1.14 ± 0.035 | 1.25 ± 0.085 | 1.24 ± 0.027 | 1.22 ± 0.072 | 1.17 ± 0.083 | 0.907 ± 0.088
HCC1806 BREAST | 1.11 ± 0.012 | 0.967 ± 0.1 | 1.11 ± 0.065 | 1.14 ± 0.033 | 1.11 ± 0.089 | 1.07 ± 0.043 | 1.06 ± 0.13 | 1.1 ± 0.095 | 0.946 ± 0.076 | 1.02 ± 0.052 | 1.03 ± 0.083 | 1.11 ± 0.052 | 1.06 ± 0.053 | 1.15 ± 0.079 | 1.06 ± 0.11 | 0.808 ± 0.036
HCC1954 BREAST | 1.01 ± 0.021 | 1.04 ± 0.04 | 0.945 ± 0.058 | 1.11 ± 0.051 | 1.08 ± 0.041 | 1.04 ± 0.2 | 0.829 ± 0.072 | 0.951 ± 0.11 | 0.93 ± 0.027 | 1.09 ± 0.072 | 1.049 ± 0.0014 | 1.05 ± 0.12 | 0.845 ± 0.019 | 0.742 ± 0.1 | 0.716 ± 0.034 | 0.515 ± 0.029
HCT15 LARGE INTESTINE | 0.875 ± 0.033 | 0.981 ± 0.02 | 0.971 ± 0.025 | 1.01 ± 0.012 | 0.963 ± 0.027 | 0.9977 ± 0.0093 | 0.987 ± 0.011 | 1.06 ± 0.047 | 0.947 ± 0.027 | 0.926 ± 0.028 | 0.959 ± 0.057 | 0.914 ± 0.04 | 1.01 ± 0.021 | 0.929 ± 0.1 | 0.0957 ± 0.014 | 0.0547 ± 0.0085
HELA CERVIX | 0.979 ± 0.028 | 0.994 ± 0.034 | 0.971 ± 0.042 | 0.984 ± 0.019 | 1.03 ± 0.047 | 1.07 ± 0.065 | 1.06 ± 0.023 | 1.13 ± 0.075 | 0.982 ± 0.043 | 1 ± 0.031 | 0.985 ± 0.013 | 0.938 ± 0.04 | 1.06 ± 0.064 | 1.11 ± 0.077 | 0.593 ± 0.045 | 0.0965 ± 0.0045
HOS BONE | 0.99 ± 0.019 | 1.01 ± 0.013 | 0.9947 ± 0.0083 | 1.03 ± 0.022 | 0.9823 ± 0.005 | 1.01 ± 0.015 | 0.9423 ± 0.0071 | 0.927 ± 0.025 | 0.996 ± 0.013 | 0.992 ± 0.029 | 1.02 ± 0.02 | 1.004 ± 0.0095 | 1.04 ± 0.015 | 1.05 ± 0.025 | 0.96 ± 0.02 | 0.158 ± 0.011
HOSMNG BONE | 1.02 ± 0.09 | 1 ± 0.072 | 0.994 ± 0.04 | 1.01 ± 0.062 | 0.996 ± 0.062 | 1.02 ± 0.11 | 1.02 ± 0.041 | 1.02 ± 0.065 | 0.97 ± 0.12 | 0.966 ± 0.034 | 0.957 ± 0.1 | 1 ± 0.046 | 1.05 ± 0.11 | 1.03 ± 0.084 | 0.652 ± 0.053 | 0.168 ± 0.011
